Values of other authors in US8685448B2, “Pharmaceutical solid dosage form” (Laboratorios Del Dr. Esteve, S.A., priority 2009, dated 2014).
Structures can show the parent of a compound that is named as a salt.

Details: background statement

COc1ccc2nc([S@@+]([O-])Cc3ncc(C)c(OC)c3C)[nH]c2c1 [esomeprazol sodium salt, sodium salt of (−)-(S)-5-methoxy-2-[(4-methoxy-3,5-dimethylpyridin-2-yl)methylsulflnyl]-3H-benzoimidazole]
solubility in water: extremely soluble in water
